Measurements taken from ChEMBL document CHEMBL1201862, “PubChem BioAssay data set” (2004).
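Growth conditions: 96-well plates. Treatment: test compound, 48 hours, 5 concentrations. Analysis: linear interpolation between bracketing concentrations; unreached endpoints set to highest concentration. At the GI50, growth is halved.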 Active and inactive are the calls of the source. Cut-off read from the data, not from the text of the source: active = GI50 up to about 1.1 µM and inactive = higher.

Key:
Experiment in all cases: NCI anticancer screen, dose series, 48 h
U-251 = tested on: U-251
SF-295 = tested on: SF-295
RXF 393 = tested on: RXF 393
T47D = tested on: T47D
MDA-MB-231 = tested on: MDA-MB-231
SNB-19 = tested on: SNB-19
EKVX = tested on: EKVX
SK-MEL-2 = tested on: SK-MEL-2
PC-3 = tested on: PC-3
OVCAR-5 = tested on: OVCAR-5
Malme-3M = tested on: Malme-3M
SN12C = tested on: SN12C
SK-MEL-5 = tested on: SK-MEL-5
NCI-H23 = tested on: NCI-H23
786-0 = tested on: 786-0
MOLT-4 = tested on: MOLT-4
HOP-92 = tested on: HOP-92
OVCAR-4 = tested on: OVCAR-4
K562 = tested on: K562
NCI-H460 = tested on: NCI-H460

Measured: GI50

COc1ccc(OC)c(CSc2ccc(OC)c(OC)c2)c1
inactive: U-251 > 94.2 µM | SF-295 > 81.5 µM | RXF 393 > 100 µM | T47D 10.6 µM | MDA-MB-231 > 93.5 µM | SNB-19 > 100 µM | EKVX 62.4 µM | SK-MEL-2 49.9 µM | PC-3 > 79.8 µM | OVCAR-5 > 100 µM | Malme-3M > 100 µM | SN12C > 100 µM | SK-MEL-5 45.4 µM | NCI-H23 82 µM | 786-0 > 100 µM | MOLT-4 43.2 µM | HOP-92 > 52.2 µM | OVCAR-4 31.4 µM | K562 74.8 µM | NCI-H460 > 100 µM

Cc1ccc(C(=N)c2ccccc2Cc2cccc3ccccc23)c2ccccc12
inactive: U-251 > 100 µM | SF-295 71.4 µM | RXF 393 > 100 µM | T47D 65.3 µM | MDA-MB-231 > 100 µM | SNB-19 > 100 µM | EKVX 60.1 µM | SK-MEL-2 > 100 µM | PC-3 > 100 µM | OVCAR-5 > 100 µM | Malme-3M > 100 µM | SN12C > 100 µM | SK-MEL-5 31.9 µM | NCI-H23 95.3 µM | 786-0 > 100 µM | MOLT-4 58.7 µM | HOP-92 > 100 µM | OVCAR-4 > 100 µM | K562 80 µM | NCI-H460 41.5 µM

Cc1ccc([N+](=O)[O-])cc1S(=O)(=O)Nc1ccc(C2=NN(S(=O)(=O)c3cc([N+](=O)[O-])ccc3C)C(c3ccccc3O)C2)cc1 (stereo not given)
inactive: U-251 30.6 µM | SF-295 34.4 µM | RXF 393 36.8 µM | T47D > 100 µM | MDA-MB-231 44.6 µM | SNB-19 42.4 µM | EKVX 57.7 µM | SK-MEL-2 31.5 µM | PC-3 > 100 µM | OVCAR-5 > 100 µM | Malme-3M > 100 µM | SN12C > 100 µM | SK-MEL-5 > 100 µM | NCI-H23 53.5 µM | 786-0 30.8 µM | MOLT-4 26.7 µM | HOP-92 49.9 µM | OVCAR-4 > 100 µM | K562 31.6 µM | NCI-H460 > 100 µM

COc1ccc(NC(=O)CC(=O)n2nc(-c3ccccc3)c(/N=N/c3ccc(C)cc3)c2-c2ccccc2)cc1
inactive: U-251 20.8 µM | SF-295 23.8 µM | RXF 393 19.1 µM | T47D 36.1 µM | MDA-MB-231 25.6 µM | SNB-19 21.5 µM | EKVX 21.8 µM | SK-MEL-2 32.7 µM | PC-3 > 41.4 µM | OVCAR-5 > 80 µM | Malme-3M 31.5 µM | SN12C 38 µM | SK-MEL-5 > 65.2 µM | NCI-H23 28.4 µM | 786-0 19.2 µM | MOLT-4 > 95.9 µM | HOP-92 16.8 µM | OVCAR-4 27.5 µM | K562 > 85.3 µM | NCI-H460 35.3 µM

Nc1nc(=O)c2cc(NCc3ccc(C(=O)NC(CCC(=O)O)C(=O)O)cc3)ccc2[nH]1 (stereo not given)
inactive: U-251 > 100 µM | SF-295 61.8 µM | RXF 393 > 100 µM | T47D > 100 µM | MDA-MB-231 > 100 µM | SNB-19 > 100 µM | EKVX > 100 µM | SK-MEL-2 > 100 µM | PC-3 > 100 µM | OVCAR-5 > 100 µM | Malme-3M > 100 µM | SN12C 85.5 µM | SK-MEL-5 > 100 µM | NCI-H23 > 100 µM | 786-0 > 100 µM | MOLT-4 > 100 µM | HOP-92 > 100 µM | OVCAR-4 > 100 µM | K562 > 100 µM | NCI-H460 50 µM
